Assay results reported in PubChem BioAssay AID1963861 (Molecular Pharmacology Branch, DTP, NCI, 2024).

Test system: 885724-159-R-J1-PDC KRAS PDC multicell spheroid viability
Test: Anticancer human tumor 885724-159-R-J1-PDC patient-derived pancreatic adenocarcinoma cell line growth inhibition [KRAS2]
Settings: for IC50: curve of first compound; for viability, T/C: stronger effect = lower value
Outline: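 KRAS-mutant tumor cells were grown as spheroids with HUVEC endothelial cells and human MSCs as stroma. Targeted agents were tested alone and with KRAS pathway inhibitors. Doses started at or near clinical Cmax, or 10 microM, descending half-log.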
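Also: spheroids exposed to agents for 7 days before readout.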

CC1(C)CCC(CN2CCN(c3ccc(C(=O)NS(=O)(=O)c4ccc(NCC5CCOCC5)c([N+](=O)[O-])c4)c(Oc4cnc5[nH]ccc5c4)c3)CC2)=C(c2ccc(Cl)cc2)C1 + C=CC(=O)N1CCN(c2nc(=O)n(-c3c(C)ccnc3C(C)C)c3nc(-c4c(O)cccc4F)c(F)cc23)C(C)C1
IC50 (second compound 0.1 µM): 7.09 µM | IC50 (second compound 0.316 µM): 7.14 µM | IC50 (second compound 1 µM): 5.36 µM | IC50 (second compound 3.16 µM): 9.7 µM | IC50 (second compound 10 µM): 5.48 µM | viability, T/C (second compound 0.1 µM, first compound 0.0316 µM): 111% | viability, T/C (second compound 0.1 µM, first compound 0.1 µM): 118% | viability, T/C (second compound 0.1 µM, first compound 0.316 µM): 114% | viability, T/C (second compound 0.1 µM, first compound 1 µM): 108% | viability, T/C (second compound 0.1 µM, first compound 3.16 µM): 91.2% | viability, T/C (second compound 0.1 µM, first compound 10 µM): 32.3% | viability, T/C (second compound 0.316 µM, first compound 0.0316 µM): 117% | viability, T/C (second compound 0.316 µM, first compound 0.1 µM): 114% | viability, T/C (second compound 0.316 µM, first compound 0.316 µM): 111% | viability, T/C (second compound 0.316 µM, first compound 1 µM): 114% | viability, T/C (second compound 0.316 µM, first compound 3.16 µM): 89.3% | viability, T/C (second compound 0.316 µM, first compound 10 µM): 33.8% | viability, T/C (second compound 1 µM, first compound 0.0316 µM): 122% | viability, T/C (second compound 1 µM, first compound 0.1 µM): 117% | viability, T/C (second compound 1 µM, first compound 0.316 µM): 118% | viability, T/C (second compound 1 µM, first compound 1 µM): 112% | viability, T/C (second compound 1 µM, first compound 3.16 µM): 72.8% | viability, T/C (second compound 1 µM, first compound 10 µM): 23.1% | viability, T/C (second compound 3.16 µM, first compound 0.0316 µM): 109% | viability, T/C (second compound 3.16 µM, first compound 0.1 µM): 120% | viability, T/C (second compound 3.16 µM, first compound 0.316 µM): 113% | viability, T/C (second compound 3.16 µM, first compound 1 µM): 114% | viability, T/C (second compound 3.16 µM, first compound 3.16 µM): 80.8% | viability, T/C (second compound 3.16 µM, first compound 10 µM): 49.2% | viability, T/C (second compound 10 µM, first compound 0.0316 µM): 91.1% | viability, T/C (second compound 10 µM, first compound 0.1 µM): 68.7% | viability, T/C (second compound 10 µM, first compound 0.316 µM): 76.9% | viability, T/C (second compound 10 µM, first compound 1 µM): 77.8% | viability, T/C (second compound 10 µM, first compound 3.16 µM): 65.3% | viability, T/C (second compound 10 µM, first compound 10 µM): 33%
